Source: US20220298141A1, “ENZYME INHIBITORS” (KALVISTA PHARMACEUTICALS LIMITED, priority 2019, published 2022)

Target: T1, Human Factor XIIa (Homo sapiens, UniProt P00748)
T1 construct: purchased Enzyme Research Laboratories
T1 sequence (P00748 373-615 limits assumed): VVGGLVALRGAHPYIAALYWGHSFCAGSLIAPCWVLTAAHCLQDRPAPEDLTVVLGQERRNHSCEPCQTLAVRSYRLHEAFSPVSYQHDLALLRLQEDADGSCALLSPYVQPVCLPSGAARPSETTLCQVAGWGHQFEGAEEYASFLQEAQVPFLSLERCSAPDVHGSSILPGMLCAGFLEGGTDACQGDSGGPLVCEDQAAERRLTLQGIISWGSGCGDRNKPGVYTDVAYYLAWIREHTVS
T1 sequence (P00748 20-372 partner limits assumed): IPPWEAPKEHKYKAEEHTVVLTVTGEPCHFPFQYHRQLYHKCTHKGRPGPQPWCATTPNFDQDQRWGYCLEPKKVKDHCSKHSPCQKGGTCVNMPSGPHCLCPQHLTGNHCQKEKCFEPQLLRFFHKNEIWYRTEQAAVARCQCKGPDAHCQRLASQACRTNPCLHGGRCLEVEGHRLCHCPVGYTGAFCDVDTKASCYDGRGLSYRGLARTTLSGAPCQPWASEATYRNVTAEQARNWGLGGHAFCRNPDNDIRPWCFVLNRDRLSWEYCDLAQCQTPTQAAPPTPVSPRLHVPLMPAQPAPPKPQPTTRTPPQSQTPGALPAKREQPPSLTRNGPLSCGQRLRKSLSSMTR
Assay: Determination of Factor XIIa inhibitory activity in vitro (fluorogenic substrate H-DPro-Phe-Arg-AFC)
Format: biochemical
Details: Human Factor XIIa (Enzyme Research Laboratories), 25° C., read-out: Human FXIIa IC50
Experimental: Determination of the % Inhibition for FXIIa
Factor XIIa inhibitory activity in vitro was determined using standard published methods (see e.g. Shori et al., Biochem. Pharmacol., 1992, 43, 1209; Baeriswyl et al., ACS Chem. Biol., 2015, 10 (8) 1861; Bouckaert et al., European Journal of Medicinal Chemistry 110 (2016) 181). Human Factor XIIa (Enzyme Research Laboratories) was incubated at 25° C. with the fluorogenic substrate H-DPro-Phe-Arg-AFC and various concentrations of the test compound. Residual enzyme activity (initial rate of reaction) was determined by measuring the […] and the IC50 value for the test compound was determined.

| Compound | IC50 |
| --- | --- |
| Nc1nccc2cc(CNC(=O)c3cc(Cl)cnc3NC3CCCC3)ccc12 [Example 1.01] | 10 to 40 µM |
| Nc1nccc2cc(CNC(=O)c3cc(Cl)cnc3NCc3ccccc3)ccc12 [Example 1.02] | 10 to 40 µM |
| Nc1nccc2cc(CNC(=O)c3cc(Cl)cnc3NCC3CCOCC3)ccc12 [Example 1.03] | 10 to 40 µM |
| Nc1nccc2cc(CNC(=O)c3cc(Cl)cnc3Nc3ccccc3)ccc12 [Example 1.04] | 10 to 40 µM |
| COc1ccc(CNc2ncc(Cl)cc2C(=O)NCc2ccc3c(N)nccc3c2)cc1 [Example 1.05] | 10 to 40 µM |
| CS(=O)(=O)c1cccc(CNc2ncc(Cl)cc2C(=O)NCc2ccc3c(N)nccc3c2)c1 [Example 1.06] | 3 to 10 µM |
| CN(C)c1cccc(CNc2ncc(Cl)cc2C(=O)NCc2ccc3c(N)nccc3c2)c1 [Example 1.07] | 10 to 40 µM |
| COCCNc1ncc(Cl)cc1C(=O)NCc1ccc2c(N)nccc2c1 [Example 1.08] | 3 to 10 µM |
| CN(C)CCNc1ncc(Cl)cc1C(=O)NCc1ccc2c(N)nccc2c1 [Example 1.09] | 1 to 3 µM |
| Nc1nccc2cc(CNC(=O)c3cc(Cl)cnc3NCCN3CCCCC3)ccc12 [Example 1.10] | 1 to 3 µM |
| Nc1nccc2cc(CNC(=O)c3cc(Cl)cnc3NCCN3CCOCC3)ccc12 [Example 1.11] | 3 to 10 µM |
| CN1CCN(CCNc2ncc(Cl)cc2C(=O)NCc2ccc3c(N)nccc3c2)CC1 [Example 1.12] | 1 to 3 µM |
| CN1CCC(CNc2ncc(Cl)cc2C(=O)NCc2ccc3c(N)nccc3c2)CC1 [Example 1.13, N-[(1-Amino-6-isoquinolyl)methyl]-5-chloro-2-[(1-methyl-4-piperidyl)methylamino]pyridine-3-carboxamide] | 0.3 to 1 µM |
| Nc1nccc2cc(CNC(=O)c3cc(Cl)cnc3NCCOc3ccccc3)ccc12 [Example 1.14] | 3 to 10 µM |
| Nc1nccc2cc(CNC(=O)c3cc(Cl)cnc3NCCCOc3ccccc3)ccc12 [Example 1.15] | 10 to 40 µM |
| Nc1nccc2cc(CNC(=O)c3cc(Cl)cnc3NCCn3ccnc3)ccc12 [Example 1.16] | 3 to 10 µM |
| Nc1nccc2cc(CNC(=O)c3cc(Cl)cnc3NCCN3CCS(=O)(=O)CC3)ccc12 [Example 1.17] | 3 to 10 µM |
| CC(C)CCNc1ncc(Cl)cc1C(=O)NCc1ccc2c(N)nccc2c1 [Example 1.18] | 10 to 40 µM |
| CC(=O)NCCNc1ncc(Cl)cc1C(=O)NCc1ccc2c(N)nccc2c1 [Example 1.19] | 3 to 10 µM |
| CC(=O)NCCCNc1ncc(Cl)cc1C(=O)NCc1ccc2c(N)nccc2c1 [Example 1.20] | 3 to 10 µM |
| Nc1nccc2cc(CNC(=O)c3cc(Cl)cnc3NCc3ccc4c(c3)OCO4)ccc12 [Example 1.21] | 10 to 40 µM |
| CN1CCCc2cc(CNc3ncc(Cl)cc3C(=O)NCc3ccc4c(N)nccc4c3)ccc21 [Example 1.22] | 3 to 10 µM |
| Nc1nccc2cc(CNC(=O)c3cc(Cl)cnc3NCc3ccncc3)ccc12 [Example 1.23] | 3 to 10 µM |
| Nc1nccc2cc(CNC(=O)c3cc(Cl)cnc3NCc3cccnc3)ccc12 [Example 1.24] | 3 to 10 µM |
| CC(C)N(CCNc1ncc(Cl)cc1C(=O)NCc1ccc2c(N)nccc2c1)C(C)C [Example 1.25] | 0.3 to 1 µM |

| Compound | IC50 |
| --- | --- |
| CC(C)N1CCN(CCCNc2ncc(Cl)cc2C(=O)NCc2ccc3c(N)nccc3c2)CC1 [Example 1.26] | 1 to 3 µM |
| Nc1nccc2cc(CNC(=O)c3cc(Cl)cnc3NCc3cccc(N4CCCCC4)c3)ccc12 [Example 1.27] | 10 to 40 µM |
| Nc1nccc2cc(CNC(=O)c3cc(Cl)cnc3NCC3CCN(c4ccncc4)CC3)ccc12 [Example 1.28] | 0.3 to 1 µM |
| Nc1nccc2cc(CNC(=O)c3cc(Cl)cnc3NCCN3CCCC3=O)ccc12 [Example 1.29] | 3 to 10 µM |
| CN1CCN(c2ccccc2CNc2ncc(Cl)cc2C(=O)NCc2ccc3c(N)nccc3c2)CC1 [Example 1.30] | 3 to 10 µM |
| Nc1nccc2cc(CNC(=O)c3cc(Cl)cnc3NCC3CCN(Cc4ccccc4)CC3)ccc12 [Example 1.31] | 1 to 3 µM |
| Nc1nccc2cc(CNC(=O)c3cc(Cl)cnc3NCc3ccc(N4CCCCC4=O)cc3)ccc12 [Example 1.32] | 10 to 40 µM |
| Nc1nccc2cc(CNC(=O)c3cc(Cl)cnc3NCc3cccc(N4CCCC4=O)c3)ccc12 [Example 1.33] | 10 to 40 µM |
| Nc1nccc2cc(CNC(=O)c3cc(Cl)cnc3NCc3ccc(CN4CCCC4=O)cc3)ccc12 [Example 1.34] | 10 to 40 µM |
| CN1CCC(N(C)c2ncc(Cl)cc2C(=O)NCc2ccc3c(N)nccc3c2)CC1 [Example 1.35] | 10 to 40 µM |
| CN1CCN(CCCNc2ncc(Cl)cc2C(=O)NCc2ccc3c(N)nccc3c2)CC1 [Example 1.36] | 1 to 3 µM |
| COc1ccc(Nc2ncc(Cl)cc2C(=O)NCc2ccc3c(N)nccc3c2)cc1 [Example 1.37] | 10 to 40 µM |
| COc1ccccc1Nc1ncc(Cl)cc1C(=O)NCc1ccc2c(N)nccc2c1 [Example 1.38] | 10 to 40 µM |
| CN(C)c1ccc(Nc2ncc(Cl)cc2C(=O)NCc2ccc3c(N)nccc3c2)cc1 [Example 1.39] | 10 to 40 µM |
| CN(C)c1cccc(Nc2ncc(Cl)cc2C(=O)NCc2ccc3c(N)nccc3c2)c1 [Example 1.40] | 10 to 40 µM |
| CN(C)c1ccccc1Nc1ncc(Cl)cc1C(=O)NCc1ccc2c(N)nccc2c1 [Example 1.41] | 10 to 40 µM |
| CS(=O)(=O)Nc1cccc(Nc2ncc(Cl)cc2C(=O)NCc2ccc3c(N)nccc3c2)c1 [Example 1.42] | 10 to 40 µM |
| CN1CCC(CNc2cccc(C(=O)NCc3ccc4c(N)nccc4c3)n2)CC1 [Example 4.26] | 1 to 3 µM |
| CN1CCCN(c2ncc(C(=O)NCc3ccc4c(N)nccc4c3)cc2Cl)CC1 [Example 8.01] | 10 to 40 µM |
| COc1ccc(CN(C)c2ncc(C(=O)NCc3ccc4c(N)nccc4c3)cc2Cl)cc1 [Example 8.02] | 10 to 40 µM |
| CC(C)N1CCN(c2ncc(C(=O)NCc3ccc4c(N)nccc4c3)cc2Cl)CC1 [Example 8.03] | 10 to 40 µM |
| Nc1nccc2cc(CNC(=O)c3cnc(N4CC(O)C4)c(Cl)c3)ccc12 [Example 8.04] | 10 to 40 µM |
| CN(C)CCCOc1cccc(CN(C)c2ncc(C(=O)NCc3ccc4c(N)nccc4c3)cc2Cl)c1 [Example 8.05] | 10 to 40 µM |
| CN1CCC(N(C)c2ncc(C(=O)NCc3ccc4c(N)nccc4c3)cc2Cl)CC1 [Example 8.06, N-((1-aminoisoquinolin-6-yl)methyl)-5-chloro-6-(methyl(1-methylpiperidin-4-yl)amino)nicotinamide] | 1 to 3 µM |
| CN(c1ncc(C(=O)NCc2ccc3c(N)nccc3c2)cc1Cl)C1CCOCC1 [Example 8.07] | 3 to 10 µM |

Results, then the compound that gave them:

| IC50 | Compound |
| --- | --- |
| 10 to 40 µM | Nc1nccc2cc(CNC(=O)c3cnc(NC4CCCC4)c(Cl)c3)ccc12 [Example 11.01, N-((1-aminoisoquinolin-6-yl)methyl)-5-chloro-6-(cyclopentylamino)nicotinamide] |
| 3 to 10 µM | CN(C)c1ccc(CNc2ncc(C(=O)NCc3ccc4c(N)nccc4c3)cc2Cl)cc1 [Example 11.02] |
| 3 to 10 µM | Nc1nccc2cc(CNC(=O)c3cnc(NCC4CCOCC4)c(Cl)c3)ccc12 [Example 11.03] |
| 10 to 40 µM | Nc1nccc2cc(CNC(=O)c3cnc(Nc4ccccc4)c(Cl)c3)ccc12 [Example 11.04] |
| 1 to 3 µM | CN(C)CCCNc1ncc(Cl)cc1C(=O)NCc1ccc2c(N)nccc2c1 [Example 11.05] |
| 3 to 10 µM | CN(C)CCOc1ccc(CNc2ncc(Cl)cc2C(=O)NCc2ccc3c(N)nccc3c2)cc1 [Example 11.06] |
| 1 to 3 µM | CN(C)CCCOc1cccc(CNc2ncc(Cl)cc2C(=O)NCc2ccc3c(N)nccc3c2)c1 [Example 11.07] |
| 10 to 40 µM | CN1CCN(c2ccccc2CNc2ncc(C(=O)NCc3ccc4c(N)nccc4c3)cc2Cl)CC1 [Example 11.08] |
| 3 to 10 µM | Nc1nccc2cc(CNC(=O)c3cnc(NCC4CCN(Cc5ccccc5)CC4)c(Cl)c3)ccc12 [Example 11.10] |
| 10 to 40 µM | COc1ccc(CNc2ncc(C(=O)NCc3ccc4c(N)nccc4c3)cc2Cl)cc1 [Example 11.11] |
| 3 to 10 µM | CS(=O)(=O)c1cccc(CNc2ncc(C(=O)NCc3ccc4c(N)nccc4c3)cc2Cl)c1 [Example 11.12] |
| 10 to 40 µM | Nc1nccc2cc(CNC(=O)c3cnc(NC4CCOCC4)c(Cl)c3)ccc12 [Example 11.13] |
| 3 to 10 µM | Nc1nccc2cc(CNC(=O)c3cnc(NCCN4CCCCC4)c(Cl)c3)ccc12 [Example 11.14] |
| 10 to 40 µM | CN1CCN(CCNc2ncc(C(=O)NCc3ccc4c(N)nccc4c3)cc2Cl)CC1 [Example 11.15] |
| 3 to 10 µM | CN1CCC(CNc2ncc(C(=O)NCc3ccc4c(N)nccc4c3)cc2Cl)CC1 [Example 11.16] |
| 10 to 40 µM | Nc1nccc2cc(CNC(=O)c3cnc(NCCn4ccnc4)c(Cl)c3)ccc12 [Example 11.17] |
| 10 to 40 µM | Nc1nccc2cc(CNC(=O)c3cnc(NCc4ccccn4)c(Cl)c3)ccc12 [Example 11.18] |
| 10 to 40 µM | Nc1nccc2cc(CNC(=O)c3cnc(NCc4cccnc4)c(Cl)c3)ccc12 [Example 11.19] |
